These results are taken from US5527811A, “Isoquinolinyl compounds which are useful in treating cerebral vascular disorders” (Takeda Chemical Industries, Ltd., priority 1993, dated 1996).

Test [1] concerns transient cerebral ischemia in mongolian gerbils. Nature of the test: Protective effect of cerebralischemia: survival ratio after bilateral common carotid occlusion and reperfusion in gerbils. Type of test: in vivo, mongolian gerbil. To be noted: Meriones unguiculatus; 5 mg/kg, ip; 30 min before occlusion and 90 min after reperfusion; estimated 8 hr after reperfusion; control 0; read-out: Survival ratio. The procedure: Test Example 1 Protective effect of cerebralischemia
Male mongolian gerbils (Seiwa/8-10 wks) (n=8-10) were used. Bilateral common carotid arteries were occluded after the incision of the center of the neck under ether anesthesia. Global cerebral ischemia was induced by the occlusion of bilateral common carotid arteries (15 minutes), and after that these arteries were reperfused. Test sample was administered intraperiatonelly 30 minutes before occlusion and 90 minutes after reperfusion. In the control group, vehicle (distilled water, saline or 5% gum arabic) was administered in the same fashion. Survival ratio was estimated at 8 hr after reperfusion (Table 2).

Test [2] concerns brain edema in male wistar rats. As to the kind of experiment: Anti-brain edema effect (middle cerebral arterial occlusion and reperfusion model). Type of test: in vivo, rat (wistar). To be noted: 10 mg/kg(ip) × 7, rat, 3rd day after reperfusion, * p < 0.05. The source says: Test Example 2 Anti-brain edema effect (middle cerebral arterial occlusion and reperfusion model)
Male wistar rats (Jcl:9wks) were anesthetized with inhalation of halothane (2-bromo-2-chloro-1,1,1-trifluoroethane). After the incision of neck, bilateral common carotid arteries were […] an embolized needle (diameter 0.3 mm, length 26 mm nylon thread) was inserted into the left internal carotid artery through external carotid artery and, simultaneously, the bilateral common carotid arteries were occluded by the Sugita's aneurysm clips. The embolized needle and the clips were removed out 30 minutes after occlusion. Test sample was administered immediately and 5 hr after reperfusion on the operated day, twice a day on the 1st and 2nd day, and 1 hr before removing the brain on the 3rd day (total 7 times), intraperiatonelly. In the control group, vehicle (distilled water, saline or 5% gum arabic) was administered in the same fasion. Brain edema on the 3rd day after reperfusion was estimated from the content of water, potassium and sodium in cerebral cortex and striatum. Water content was calculated from the ratio of dried brain weight and wet brain weight [(1-dried weight/wet weight)×100%]. The contents of pottasium and sodium were measured using the solution extracted from dried brain tissue with 14% nitric acid by the method of the framephotometer (Table 3).

Test [3] deals with cytosolic free Ca^2+ in hippocampal neurons. As to the kind of experiment: Effect on cytosolic free Ca^2+ concentration in neurons (L-glutamic acid-induced [Ca^2+]i increase, fura-2). The format is cell-based. As to conditions: Rattus norvegicus, Hippocampal neuron, L-Glu.-induced [Ca^2+]i increase. The procedure: Effect on cytosolic free Ca^2+ concentration in neurons
Neurons were harvested from hippocampi of 18-day-old rat embryos and cultured based on the method of Hatanaka and Tsukui (Developmental Brain Research, 30, 47-56, 1986). Hippocampal neurons suspended in Dulbecco's modified Eagle's medium were seeded on cover glass slides (10×20 mm, Matunami No. 1, Osaka, Japan) coated with poly-L-lysin at a density of 2.5×10^5 cells/slide and cultured for 7 days in humidified CO2 incubator (95% air/5% CO2) at 37° C. The neurons were washed 3 times with HEPES [N-(2-hydroxyethyl)piperazine-N'-2-ethanesulfonic acid]-buffered physiological salt solution (PSS) (140 mM NaCl, 5 mM KCl, 1 mMMgSO4, 1 mM Na2 HPO4, 1 mM CaCl2, 25 mM glucose, 25 mM HEPES, pH7.4), and then loaded with fura-2 acetoxymethyl ester (4 μM) in HEPES-buffered PSS for 60 min at 37° C. The cover glass slide coated with neurons, which were loaded with fura-2, was inserted into a cuvette that contained 2.5 ml HEPES-buffered PSS supplemented with 0.05% bovine serum albumin. Ca2+ -fura-2 fluorescence was measured with Hitachi F-2000 spectrofluorimeter by 340 nm and 380 nm for excitation and 505 nm for emission. Cytosolic free Ca^2+ concentration ([Ca^2+ ]i) values were calculated according to the method of Grynkiewicz et. al, (Journal of Biological Chemistry, 260, 3440-3450, 1985). Neurons were treated with example-compounds 5 min before the addition of L-glutamic acid (L-Glu.).
L-Glu. leads to two phases-increase of [Ca^2+ ]i in neurons. The first increase of [Ca^2+ ]i is caused by the release from cellular Ca^2+ stores and the influx of extracellular Ca^2+. The second one is caused by the influx of extracellular Ca^2+. The effect of the drug on these two phases-increase of [Ca^2+ ]i was examined and the 50% inhibitory dose (IC50) was calculated.

Test [4] addresses T1, substance P receptor from human lymphoblast cells (IM-9) (Homo sapiens, UniProt P25103).
T1 construct: The receptor was prepared from human lymphoblast cells (IM-9); endogenous in cells; host or cells: IM-9 human lymphoblast cells (washed membrane preparation)
As to the kind of experiment: Radioligand receptor binding inhibitory assay using receptor from human lymphoblast cells (IM-9), 125I-BHSP. As to conditions: 25° C., 30 minutes, pH 7.4. How it is done:
Radioligand receptor binding inhibitory assay using receptor from human lymphoblast cells (IM-9)
The method of "A. Margaret et al. Molecular Pharmacology 42, 458 (1992)" was modified and used. The receptor was prepared from human lymphoblast cells (IM-9). IM-9 cells were grown in 175 cm^2 tissue culture flasks (100 ml z 10) at a density approximately 2×10^5 /ml of RPMI 1640 with L-glutamine, 10% (V/V) heat inactivated fetal calf serum, penicillin (100 u/ml), and streptomycin (100 μg/ml) at 37° C. in 5%CO2 /95% air for 3 days. IM-9 cells were obtained by centrifugation at 500 Xg for 5 minutes at 5° C. The pellet obtained was washed once with phosphate buffer (Flow Laboratories, CAT No. 28-103-05), homogenized using Polytron homogenizer (Kinematika, Germany) in 30 ml of 50 mM Tris-HCl buffer containing 120 mM NaCl, 5 mM KCl, 2 μg/ml phenylmethyl sufonyl fluoride, and 1 mM ethylenediamine tetra-acetic acid and then centrifuged at 40,000 Xg for 20 minutes. The residue was washed twice with 30 ml of buffer described above, and preserved frozen (-80° C.).
The above specimen was suspended in a reaction buffer (50 mM Tris-HCl buffer (pH 7.4), 0.02% bovine serum albumin, 1 mM phenylmethylsufonyl fluoride, 2 μg/ml chymostatin, 40 μg/ml bacitracin, 3 mM manganese chloride) at a protein concentration of 1.5 mg/ml and a 100 μl portion of the suspension was used in the reaction. After addition of the sample and 125I-BHSP (0.46 KBq), the reaction was conducted in 0.2 ml of reaction buffer at 25° C. for 30 minutes. The amount of nonspecific binding was determined by adding substance P at a final concentration of […]. After the reaction, using a cell harvester (290PHD, Cambridge Technology, Inc., England), rapid filtration was carried out through a glass filter (GF/B, Whatman, U.S.A.) to stop the reaction. After washing three times with 250 μl of 50 mM Tris-HCl buffer (pH 7.4) containing 0.02% bovine serum albumin, the radioactivity remaining on the filter was measured with a gamma counter. Before use, the filter was immersed in 0.1% polyethyleneimine for 24 hours and air-dried. […]

pIC50: −log10 of the molar value. Where two headings read alike, the source gives them in different places.

T1 sequence (P25103 whole entry): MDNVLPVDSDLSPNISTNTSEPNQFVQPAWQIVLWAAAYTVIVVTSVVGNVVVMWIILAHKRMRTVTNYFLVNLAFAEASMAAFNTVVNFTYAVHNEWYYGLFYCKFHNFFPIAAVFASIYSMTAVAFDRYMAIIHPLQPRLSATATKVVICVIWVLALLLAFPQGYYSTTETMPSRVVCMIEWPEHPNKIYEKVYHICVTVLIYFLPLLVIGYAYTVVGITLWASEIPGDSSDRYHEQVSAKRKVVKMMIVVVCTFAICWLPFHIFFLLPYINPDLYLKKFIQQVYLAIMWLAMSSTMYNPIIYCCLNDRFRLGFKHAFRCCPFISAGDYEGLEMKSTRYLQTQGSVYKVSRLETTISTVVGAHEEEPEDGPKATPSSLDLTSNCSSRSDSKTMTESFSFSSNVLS

The term pIC50 denotes −log10 of the IC50, conventionally taken in molar units. Regarding `CC(C)Oc1cccc(NC(=O)NCc2c(-c3ccccc3)c3cc(Cl)ccc3c(=O)n2C)c1` [Example 1, N-[(6-Chloro-1,2-dihydro-2-methyl-1-oxo-4-phenylisoquinolin-3-yl)methyl]-N'-(3isopropoxyphenyl)urea], the responders at 5 mg/kg in test [1] was 88%. The “H2O (water content of brain)” value in test [2] (control 81.27 (Example 1), 80.94 (Example 15(HCl))) came to 80.12 ± 0.32%. For the same molecule, the “Na (sodium content of brain)” value in test [2] (control 405 (Example 1), 371 (Example 15(HCl))) turned out to be 322 ± 24 mEq/kg. Besides, the “K (potassium content of brain)” value in test [2] (control 430 (Example 1), 440 (Example 15(HCl))) was 471 ± 13 mEq/kg. Besides, the pIC50 in test [3] (with EGTA, 1st phase (release from cellular Ca^2+ stores), read-out: IC50 with EGTA, 1st Phase) was 7.16; in test [3] (without EGTA, 1st phase, read-out: IC50 without EGTA, 1st Phase) it was 5.52; in test [3] (without EGTA, 2nd phase, read-out: IC50 without EGTA, 2nd Phase), less than 5.00.
`Cc1cc2c(-c3ccccc3)c(CN(C)C(=O)c3cc(C(F)(F)F)cc(C(F)(F)F)c3)n(C)c(=O)c2cc1C` [Example 36, 3,5-Bis(trifluoromethyl)-N-[(1,2-dihydro-2,6,7-trimethyl-1-oxo-4-phenylisoquinolin-3-yl)methyl]-N-methylbenzamide] showed a negative logarithm of the IC50 (pIC50) in test [4] of 7.33.
Take `CN(Cc1c(-c2ccccc2)c2ccccc2c(=O)n1C)C(=O)c1cc(C(F)(F)F)cc(C(F)(F)F)c1` [Example 37, 3,5-Bis(trifluoromethyl)-N-[(1,2-dihydro-2-methyl-1-oxo-4-phenylisoquinolin-3-yl)methyl]-N-methyl benzamide]: the pIC50 in test [4] was 9.00.
Same read-out and setting: in the case of `CN(Cc1c(-c2ccccc2)c2cc(Cl)ccc2c(=O)n1C)C(=O)c1cc(C(F)(F)F)cc(C(F)(F)F)c1` [Example 38, 3,5-Bis(trifluoromethyl)-N-[(6-chloro-1,2-dihydro-2-methyl-1-oxo-4-phenylisoquinolin-3-yl)methyl]-N-methylbenzamide] it was 7.14.
